Data taken from US20230190707A1, “COMPOSITIONS AND METHODS FOR ENHANCING CANCER IMMUNOTHERAPY” (FRED HUTCHINSON CANCER CENTER, priority 2020, published 2023).

Columns and labels:
OT-1 T cells = test: Intracellular cytokine staining of OT-1 T cells; format: cell-based, mouse; settings: higher doses
Description: OT-1 cells were prepared and incubated with ovalbumin-expressing tumors as described above in the LAMP-1 assay. For some experiments OT-1 cells were instead left unstimulated (DMSO) or treated with PMA 1 μg/mL+ionomycin 1 μM as a supraphysiologic stimulus. In all cases, T cells underwent a 5-6 hour incubation period in the presence of DMSO or splicing modulators at the indicated concentrations, and with brefeldin A and monensin present for the entire duration. Cells were subsequently washed, stained for surface markers, and then fixed/permeabilized for intracellular staining of the indicated cytokines according to manufacturer instructions (BD Biosciences).

RBM39 = target: T1, RBM39 (Mus musculus, UniProt Q6PFH3+Q8VH51); test: RBM39 protein in tissues after in vivo indisulam; settings: therapeutic indisulam doses
T1 construct: endogenous in cells; host or cells: B16-F10 (also MC38, CT26, LLC)
Description: Western blotting was performed as per standard techniques. Anti-RBM39 (Atlas Antibodies, Cat. HPA001591 or Bethyl laboratories, Cat. A300-291A) were used to detect RBM39 degradation. ADMA and SDMA levels were determined using antibodies from Cell Signaling Technologies (Cat. 13222S and Cat. 135225). Actin antibody (clone AC-15) was obtained from MilliporeSigma (Cat. A5441-.2ML). Densitometry of RBM39 and actin loading control was performed using ImageJ software in order to calculate RBM39 degradation IC50 values.
(§1) Mice were weighed weekly for weight-based drug dosing.

B16-F10 cells = test: Engraftment of indisulam-treated B16-F10 cells into hosts with immune perturbations or with B2m knockout; format: in vivo, mouse
Text: B16-F10, CT26.WT (CT26), and LLC cells were obtained from ATCC (Cat. CRL-6475, CRL-2638, and CRL-1642 respectively). MB49 cells were obtained from MilliporeSigma (Cat. SCC148, Burlington, Mass.); MC38 cells were obtained from Kerafast (Cat. ENH204-FP, Boston, Mass.). B16-F10 and MC38 cells expressing chicken ovalbumin (B16ova and MC38ova) were a kind gift of Jeff Ravetch (Rockefeller University, New York, N.Y.). To generate β2 microglobulin deficient cell lines for in vitro experiments, four candidate sgRNAs for mouse β2microglobulin (#1 […] (SEQ ID NO:2), #2 […] (SEQ ID NO:3), #3 […] (SEQ ID NO:4), #4 […]) (SEQ ID NO:5), or nontargeting control ([…]) (SEQ ID NO:6) were cloned into pSpCas9(BB)-2A-Puro (PX459) as previously described (Ran, F. A., et al. (2013). Genome engineering using the CRISPR-Cas9 system. Nat Protoc 8, 2281-2308, incorporated herein by reference in its entirety) and used to engineer deficient MC38, B16-F10, and CT26 cell lines via transfection using XtremeGene 9 reagent as per manufacturer's instructions (MilliporeSigma Cat. 6365809001) followed by puromycin selection at 10 μg/mL for three days. Polyclonal cell populations were obtained by flow sorting for H-2K^b/D^b and P2 microglobulin double-negative cells, and gene knockout further confirmed by stimulating a culture of these sorted cells for 48 hours with 10 U/mL mouse IFNγ and analyzing for the same markers. For in vivo experiments, lentiCas9-Blast was used to generate Cas9-expressing B16-F10 cells. […]
Unless otherwise specified, syngeneic B6 or Balb/c mice were engrafted subcutaneously on bilateral flanks with MC38, B16-F10, CT26 or LLC tumor cells at the following doses: MC38 10^6 cells, B16-F10 0.5×10^6 cells, CT26 0.25×10^6 cells, LLC 0.25×10^6 cells. Tumors were measured serially twice or three times weekly and tumor volumes were estimated by length×width×height. Animals were monitored daily for survival and weighed twice weekly. […]

LLC tumors = test: Therapeutic treatment with indisulam and anti-PD1, LLC tumors; format: in vivo, mouse; settings: syngeneic C57BL/6; indisulam 25 mg/kg i.v.; anti-PD1 250 μg
Text: as §1

| SMILES | ability of OT-1 T cells to secrete IFNγ or TNFα (OT-1 T cells) | RBM39 protein in tumoral as well as immune tissues in vivo (RBM39) | growth inhibition with loss of β2-microglobulin in B16-F10 (B16-F10 cells; B2m CRISPR knockout vs control B16-F10, indisulam pretreatment) | in vivo growth inhibition with NK depletion (B16-F10 cells; B16-F10 treated 1 μM 96 hours, NK cell depletion) | in vivo tumor growth inhibition in Rag2 recipients and with T cell depletion (B16-F10 cells; B16-F10 treated 1 μM 96 hours, anti-CD4 and anti-CD8) | growth of LLC tumors in vivo (LLC tumors) |
| --- | --- | --- | --- | --- | --- | --- |
| CC(C)Oc1ccc(-c2c[nH]cc2CN(C)CCN)cc1 [MS-023] | did not inhibit |  |  |  |  |  |
| NS(=O)(=O)c1ccc(S(=O)(=O)Nc2cccc3c(Cl)c[nH]c23)cc1 [indisulam] | did not inhibit | on-target RBM39 protein reduction | rescued the growth inhibition | did not rescue cell growth | rescued | inhibited tumor growth |
